Measured values taken from PMC3005307 (Chemistry & biology, 2010).
“Also recorded” adds a separate entry of the source.

Experiments:
[1] = molecular target: TcdB CPD (Clostridioides difficile, UniProt P18177); type: biochemical, Clostridium difficile; conditions: autocleavage assay
[2] = tested on: TcdB holotoxin; type: cell-based, human
[3] = tested on: TcdB holotoxin; type: cell-based, human; remark: listed apart in the source

TcdB CPD, sequence (P18177 1-804 limits assumed): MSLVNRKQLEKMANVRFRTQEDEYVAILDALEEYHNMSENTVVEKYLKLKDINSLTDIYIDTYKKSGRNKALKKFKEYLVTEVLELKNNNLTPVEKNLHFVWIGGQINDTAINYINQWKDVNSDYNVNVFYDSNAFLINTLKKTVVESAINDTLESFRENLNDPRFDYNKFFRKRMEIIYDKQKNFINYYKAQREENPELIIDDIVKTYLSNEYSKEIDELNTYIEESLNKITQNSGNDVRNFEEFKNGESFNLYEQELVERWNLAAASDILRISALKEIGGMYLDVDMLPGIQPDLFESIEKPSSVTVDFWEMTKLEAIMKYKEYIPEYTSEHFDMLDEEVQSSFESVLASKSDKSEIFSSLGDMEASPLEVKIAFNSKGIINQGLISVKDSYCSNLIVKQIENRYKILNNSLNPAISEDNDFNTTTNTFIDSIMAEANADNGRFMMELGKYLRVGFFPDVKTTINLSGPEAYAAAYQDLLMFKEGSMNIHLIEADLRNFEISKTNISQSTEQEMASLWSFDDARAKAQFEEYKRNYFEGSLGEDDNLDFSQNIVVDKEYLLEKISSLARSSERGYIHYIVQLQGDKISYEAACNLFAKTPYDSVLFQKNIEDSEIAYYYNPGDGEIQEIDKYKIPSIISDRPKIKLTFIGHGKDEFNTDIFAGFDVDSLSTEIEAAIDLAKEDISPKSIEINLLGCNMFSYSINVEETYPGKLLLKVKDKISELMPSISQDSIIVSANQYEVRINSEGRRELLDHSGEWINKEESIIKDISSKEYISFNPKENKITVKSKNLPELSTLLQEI

## JPM-OEt
[1]
  inhibition of CPD activity: poorly inhibit CPD activity
[2]
  effect on holotoxin-mediated cell rounding: failed to inhibit toxin function; also recorded: no effect on toxin function
[3]
  effect on Rac1 glucosylation by holotoxin: no effect on toxin function
